Experimental findings from ChEMBL document CHEMBL1781978, “A highly conjugated dihydroxylated C28 steroid from a myxobacterium” (J Nat Prod, 2011) are described below.

For this assay, the system named is SW480. Put plainly: Cytotoxicity against human SW480 cells by MTT assay. The class given is functional, cell-based. Background: Tetrazolium assays rely on reduction of a dye to a coloured formazan, in cell work by metabolically active cells.

Each structure is given as a SMILES string.

As a reminder, the IC50 is the concentration at which inhibition is half-maximal. A high value points to lower potency.

The compound `CC(C)[C@@H](C)/C=C/[C@@H](C)[C@H]1CCC2=C3C=CC4=CC(=O)CC[C@]4(C)[C@@]3(O)[C@H](O)C[C@@]21C` returned an IC50 of 10 µM.
